Measured values: patent US11098055B2, “Ester ACC inhibitors and uses thereof” (Gilead Apollo, LLC, priority 2015, dated 2021)
In brackets after ≈: the same amount, converted by molar mass. Where two headings read alike, the source gives them in different places.

Key:
[1] = molecular target: hACC2 (Homo sapiens, UniProt O00763); test: In vitro ACC2 inhibition assay (ADP-Glo), human ACC2; type: biochemical
Procedure: An exemplary procedure for the in vitro ACC inhibition assay, which can be used to determine the inhibitory action of compounds of the invention toward either human (hACC2) or fungal (fACC2) ACC2, follows. The ADP-Glo™ Kinase Assay kit from Promega was used. The ADP-Glo™ Kinase Assay is a luminescent ADP detection assay to measure enzymatic activity by quantifying the amount of ADP produced during an enzyme reaction. The assay is performed in two steps; first, after the enzyme reaction, an equal volume of ADP-Glo™ Reagent is added to terminate the reaction and deplete the remaining ATP. Second, the Kinase Detection Reagent is added to simultaneously convert ADP to ATP and allow the newly synthesized ATP to be measured using a luciferase/luciferin reaction. Luminescence can be correlated to ADP concentrations by using an ATP-to-ADP conversion curve. The detailed procedure is as follows. 50 μL of the compound being tested (600 μM in DMSO) was added to a 384-well dilution plate. The compound was diluted 1:3 in succession in DMSO for each row for 11 wells. 0.5 μL ACC2 working solution was added to 384-well white Optiplate assay plate. 0.5 μL diluted compound solution in each column from step 2 was added to assay plate, each row containing 2 replicates. For the last 2 rows, 0.5 μL negative control (DMSO) was added in one row and 0.5 μL positive control (compound I-97) in the other. The plates were incubated at room temperature for 15 minutes. 5 μL substrate working solution was added to each well to initiate reaction. Final ACC2 reaction concentrations consist of: 5 nM ACC2, 20 μM ATP, 20 μM acetyl-CoA, 12 mM NaHCO3, 0.01% Brij35, 2 mM DTT, 5% DMSO, test compound concentrations: 30 μM, 10 μM, 3.33 μM, 1.11 μM, 0.37 μM, 0.123 μM, 0.0411 μM, 0.0137 μM, 0.00457 μM, 0.00152 μM, and 0.00051 μM. Plates were incubated at room temperature for 60 minutes. 10 μL ADP glo reagent was added. Plates were incubated at room temperature for 40 minutes. 20 μL kinase detection reagent was added. Plates were incubated at room temperature for 40 minutes, and then read on a Perkin Elmer EnVision 2104 plate reader for luminescence as Relative Light Units (RLU).
Data for each concentration, as well as the positive and negative controls, were averaged, and the standard deviation calculated. Percent inhibition was calculated by the formula: 100×(average negative control−compound)/(average negative control−average positive control). The IC50 for each compound was calculated by fitting the data with a non-linear regression equation: Y=Bottom+(Top−Bottom)/(1+10^((Log IC50−X)*HillSlope)), where X is the log of compound concentration and Y is percent inhibition.

[2] = tested on: Botrtyis cinerea (Bc); test: Growth inhibition assay of fungal pathogens; type: cell-based; conditions: 48 h, read-out: Concentration at 90% Inhibition Bc
Procedure: (§1) Compounds of the present invention were evaluated in a growth inhibition assay to determine the ability to control the growth of fungal pathogens, such as Botrtyis cinerea (Bc), Collectotrichum graminicola (Cg), Diplodia maydis (Dm), Fusarium moniliforme (Fm), Fusarium virguhforme (Fv), Phytophthora capsici (Pc), Rhizoctonia solani (Rs), and Septoria tritici (St). Compounds to be tested were dissolved in DMSO at 2.5 mg/ml to produce compound stock solutions (“stocks”). Stocks were diluted with DMSO by a five-fold dilution in a 96-well stock plate, and two sets of final concentrations of 50, 10, and 2 ppm or 2, 0.4, and 0.08 ppm were obtained in vitro. A set of positive controls was also prepared, with various concentrations of Soraphen (2, 0.4, and 0.08 ppm), Metalaxyl (1.1, 0.22, and 0.04 ppm), and Metconazole (2, 0.4, and 0.08 ppm or 0.2, 0.04, and 0.008 ppm) after the five-fold dilutions. Negative controls on each plate included 2% DMSO, water, and a blank (media+2% DMSO). Fungal spores were isolated from previously sub-cultured plates of Botrtyis cinerea (Bc), Collectotrichum graminicola (Cg), Diplodia maydis (Dm), Fusarium moniliforme (Fm), Fusarium virguliforme (Fv), Phytophthora capsici (Pc), and Septoria tritici (St). The isolated spores were diluted to individual concentrations with a 17% V8 liquid media. For Rhizoctonia solani (Rs) and Pythium irregulare, 1.5 mm mycelial plugs were used in place of spores and ¼ Potato Dextrose Broth (PDB) was used for dilution. The spore concentrations and plug sizes were based on growth curves generated at 48 hours for each pathogen. In a second 96-well plate, the spores or mycelial plugs, media, diluted compound solutions, and controls were combined. Once the compound was added, a true final concentration of compound in each well was measured by an OD600 reading, which adjusted for any compound precipitation that might have occurred in the well. Plate readings were repeated at both 24 and 48 hours. The blank negative control was used as a background subtraction. Additional visual ratings were performed at both 24 and 48 hours for checking on precipitation and confirming efficacy. Visual and OD600 ratings of the compounds at 48 hours were compared to the 2% DMSO negative control, and the percent of pathogen growth inhibition was determined based on those values.

[3] = tested on: Collectotrichum graminicola (Cg); test: Growth inhibition assay of fungal pathogens; type: cell-based; conditions: 48 h, read-out: Concentration at 90% Inhibition Cg
Procedure: as §1

[4] = tested on: Diplodia maydis (Dm); test: Growth inhibition assay of fungal pathogens; type: cell-based; conditions: Stenocarpella maydis, 48 h, read-out: Concentration at 90% Inhibition Dm
Procedure: as §1

[5] = tested on: Fusarium moniliforme (Fm); test: Growth inhibition assay of fungal pathogens; type: cell-based; conditions: Fusarium verticillioides, 48 h, read-out: Concentration at 90% Inhibition Fm
Procedure: as §1

[6] = tested on: Fusarium virguliforme (Fv); test: Growth inhibition assay of fungal pathogens; type: cell-based; conditions: 48 h, read-out: Concentration at 90% Inhibition Fv
Procedure: as §1

[7] = tested on: Phytophthora capsici (Pc); test: Growth inhibition assay of fungal pathogens; type: cell-based; conditions: 48 h, read-out: Concentration at 90% Inhibition Pc
Procedure: as §1

[8] = tested on: Rhizoctonia solani (Rs); test: Growth inhibition assay of fungal pathogens; type: cell-based; conditions: 48 h, read-out: Concentration at 90% Inhibition Rs
Procedure: as §1

[9] = tested on: Septoria tritici (St); test: Growth inhibition assay of fungal pathogens; type: cell-based; conditions: Zymoseptoria tritici, 48 h, read-out: Concentration at 90% Inhibition St
Procedure: as §1

hACC2, sequence (O00763 whole entry): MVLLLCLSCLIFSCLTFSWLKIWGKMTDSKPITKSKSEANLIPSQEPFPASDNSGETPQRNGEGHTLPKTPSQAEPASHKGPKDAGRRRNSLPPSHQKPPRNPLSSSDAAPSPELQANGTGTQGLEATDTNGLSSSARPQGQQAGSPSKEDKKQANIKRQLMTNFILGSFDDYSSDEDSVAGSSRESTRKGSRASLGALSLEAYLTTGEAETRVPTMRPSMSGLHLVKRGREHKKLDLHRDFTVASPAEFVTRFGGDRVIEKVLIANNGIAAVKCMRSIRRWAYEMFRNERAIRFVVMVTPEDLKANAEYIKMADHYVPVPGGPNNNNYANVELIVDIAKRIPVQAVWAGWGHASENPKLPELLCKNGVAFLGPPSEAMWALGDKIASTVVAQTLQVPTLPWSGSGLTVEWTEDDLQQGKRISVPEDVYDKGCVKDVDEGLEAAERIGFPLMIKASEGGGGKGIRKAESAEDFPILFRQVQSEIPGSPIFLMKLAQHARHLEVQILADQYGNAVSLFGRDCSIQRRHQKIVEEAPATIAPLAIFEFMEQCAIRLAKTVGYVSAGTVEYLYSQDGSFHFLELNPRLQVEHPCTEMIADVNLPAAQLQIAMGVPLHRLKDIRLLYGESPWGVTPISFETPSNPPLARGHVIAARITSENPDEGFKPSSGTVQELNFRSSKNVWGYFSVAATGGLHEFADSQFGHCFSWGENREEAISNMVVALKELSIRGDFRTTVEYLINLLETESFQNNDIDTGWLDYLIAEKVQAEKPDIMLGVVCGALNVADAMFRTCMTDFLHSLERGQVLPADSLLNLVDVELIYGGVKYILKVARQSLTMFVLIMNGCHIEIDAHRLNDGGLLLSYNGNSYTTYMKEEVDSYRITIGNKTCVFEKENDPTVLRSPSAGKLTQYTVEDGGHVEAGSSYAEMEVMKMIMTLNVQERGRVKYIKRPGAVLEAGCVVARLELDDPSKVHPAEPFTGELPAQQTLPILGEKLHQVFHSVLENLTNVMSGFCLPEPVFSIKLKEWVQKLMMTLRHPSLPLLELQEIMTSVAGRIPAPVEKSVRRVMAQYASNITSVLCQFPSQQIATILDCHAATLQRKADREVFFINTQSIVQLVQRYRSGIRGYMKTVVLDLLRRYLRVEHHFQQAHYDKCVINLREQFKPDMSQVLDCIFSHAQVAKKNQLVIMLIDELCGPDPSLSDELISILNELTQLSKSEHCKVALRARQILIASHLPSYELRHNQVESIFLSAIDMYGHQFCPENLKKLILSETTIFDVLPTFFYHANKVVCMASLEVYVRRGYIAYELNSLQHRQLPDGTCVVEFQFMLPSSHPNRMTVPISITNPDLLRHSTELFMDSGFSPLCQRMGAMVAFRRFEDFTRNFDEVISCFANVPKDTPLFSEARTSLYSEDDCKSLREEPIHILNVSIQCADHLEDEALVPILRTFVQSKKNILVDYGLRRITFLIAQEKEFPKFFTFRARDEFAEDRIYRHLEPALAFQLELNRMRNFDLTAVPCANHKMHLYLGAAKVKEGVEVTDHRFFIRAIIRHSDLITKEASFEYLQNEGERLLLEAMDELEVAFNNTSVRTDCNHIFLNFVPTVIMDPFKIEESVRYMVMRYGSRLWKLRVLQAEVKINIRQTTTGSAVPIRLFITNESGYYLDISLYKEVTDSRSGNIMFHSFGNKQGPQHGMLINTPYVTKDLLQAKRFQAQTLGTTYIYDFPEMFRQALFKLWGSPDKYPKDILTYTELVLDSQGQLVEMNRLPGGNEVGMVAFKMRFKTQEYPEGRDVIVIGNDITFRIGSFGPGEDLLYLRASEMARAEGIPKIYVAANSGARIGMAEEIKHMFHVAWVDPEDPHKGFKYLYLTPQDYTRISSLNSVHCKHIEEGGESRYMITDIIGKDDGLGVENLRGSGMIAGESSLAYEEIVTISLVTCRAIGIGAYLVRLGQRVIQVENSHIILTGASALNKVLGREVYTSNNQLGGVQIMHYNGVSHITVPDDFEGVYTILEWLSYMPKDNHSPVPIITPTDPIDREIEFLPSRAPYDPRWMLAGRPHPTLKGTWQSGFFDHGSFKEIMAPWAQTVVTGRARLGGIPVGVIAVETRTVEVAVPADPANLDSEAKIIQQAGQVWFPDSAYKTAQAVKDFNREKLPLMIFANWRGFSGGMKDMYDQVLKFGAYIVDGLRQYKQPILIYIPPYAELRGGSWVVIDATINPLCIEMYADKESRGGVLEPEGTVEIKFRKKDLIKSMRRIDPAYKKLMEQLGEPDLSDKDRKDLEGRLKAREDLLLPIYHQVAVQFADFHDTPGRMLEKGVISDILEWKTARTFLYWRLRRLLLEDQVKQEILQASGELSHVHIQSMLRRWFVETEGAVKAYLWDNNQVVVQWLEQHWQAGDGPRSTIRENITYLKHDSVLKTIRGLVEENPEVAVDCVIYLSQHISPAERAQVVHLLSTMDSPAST

| Compound | IC50 ([1]; Table 2b (additional results)) | IC90 ([2]; Table 4b) | IC90 ([3]; Table 4b) | IC90 ([4]; Table 4b) | IC90 ([5]; Table 4b) | IC90 ([6]; Table 4b) | IC90 ([7]; Table 4b) | IC90 ([8]; Table 4b) | IC90 ([9]; Table 4b) | IC50 ([1]; Table 2a) | IC90 ([2]; Table 4a) | IC90 ([3]; Table 4a) | IC90 ([4]; Table 4a) | IC90 ([5]; Table 4a) | IC90 ([6]; Table 4a) | IC90 ([7]; Table 4a) | IC90 ([8]; Table 4a) | IC90 ([9]; Table 4a) |
| --- | --- | --- | --- | --- | --- | --- | --- | --- | --- | --- | --- | --- | --- | --- | --- | --- | --- | --- |
| CCNC(=O)[C@H](C)n1c(=O)c2c(C)c(C(=O)OCC)sc2n(C[C@H](OCCC#N)c2cc(F)ccc2OC)c1=O [Compound I-42, ethyl 1-((R)-2-(2-cyanoethoxy)-2-(5-fluoro-2-methoxyphenyl)ethyl)-3-((S)-1-(ethylamino)-1-oxopropan-2-yl)-5-methyl-2,4-dioxo-1,2,3,4-tetrahydrothieno[2,3-d]pyrimidine-6-carboxylate] | 3 to 10 nM | 0.4 µg/mL (≈ 0.696 µM) | 2 µg/mL (≈ 3.48 µM) | 2 µg/mL (≈ 3.48 µM) | 0.08 µg/mL (≈ 0.139 µM) | 0.4 µg/mL (≈ 0.696 µM) | ≥ 50 µg/mL | 2 µg/mL (≈ 3.48 µM) | ≥ 50 µg/mL | – | – | – | – | – | – | – | – | – |
| CCNC(=O)C(C)(C)n1c(=O)c2c(C)c(C(=O)OCC)sc2n(C[C@H](OCCC#N)c2ccccc2OC)c1=O [Compound I-32, ethyl (R)-1-(2-(2-cyanoethoxy)-2-(2-methoxyphenyl)ethyl)-3-(1-(ethylamino)-2-methyl-1-oxopropan-2-yl)-5-methyl-2,4-dioxo-1,2,3,4-tetrahydrothieno[2,3-d]pyrimidine-6-carboxylate] | 3 to 10 nM | 2 µg/mL (≈ 3.5 µM) | 2 µg/mL (≈ 3.5 µM) | 2 µg/mL (≈ 3.5 µM) | 0.08 µg/mL (≈ 0.14 µM) | 2 µg/mL (≈ 3.5 µM) | ≥ 50 µg/mL | 2 µg/mL (≈ 3.5 µM) | 10 µg/mL (≈ 17.5 µM) | – | – | – | – | – | – | – | – | – |
| CCOC(=O)c1sc2c(c1C)c(=O)n(C(C)(C)C(=O)N1CCCC1)c(=O)n2C[C@H](OCCO)c1cc(F)ccc1OC [Compound I-12, (R)-ethyl 1-(2-(5-fluoro-2-methoxyphenyl)-2-(2-hydroxy-ethoxy)ethyl)-5-methyl-3-(2-methyl-1-oxo-1-(pyrrolidin-1-yl)propan-2-yl)-2,4-dioxo-1,2,3,4-tetrahydrothieno[2,3-d]pyrimidine-6-carboxylate] | 3 to 10 nM | 2 µg/mL (≈ 3.3 µM) | 0.4 µg/mL (≈ 0.66 µM) | 2 µg/mL (≈ 3.3 µM) | 0.4 µg/mL (≈ 0.66 µM) | 2 µg/mL (≈ 3.3 µM) | ≥ 50 µg/mL | 0.4 µg/mL (≈ 0.66 µM) | ≥ 50 µg/mL | 3 to 10 nM | 2 µg/mL (≈ 3.3 µM) | 0.4 µg/mL (≈ 0.66 µM) | 2 µg/mL (≈ 3.3 µM) | 0.4 µg/mL (≈ 0.66 µM) | 2 µg/mL (≈ 3.3 µM) | ≥ 50 µg/mL | 0.4 µg/mL (≈ 0.66 µM) | ≥ 50 µg/mL |
| CCOC(=O)c1sc2c(c1C)c(=O)n([C@@H](C)C(=O)NC(C)C)c(=O)n2C[C@H](O)c1cc(F)ccc1OC [Compound I-44, ethyl 1-((R)-2-(5-fluoro-2-methoxyphenyl)-2-hydroxyethyl)-3-((S)-1-(isopropylamino)-1-oxopropan-2-yl)-5-methyl-2,4-dioxo-1,2,3,4-tetrahydrothieno[2,3-d]pyrimidine-6-carboxylate] | ≥ 40 nM | 10 µg/mL (≈ 18.7 µM) | ≥ 50 µg/mL | ≥ 50 µg/mL | ≥ 50 µg/mL | 10 µg/mL (≈ 18.7 µM) | ≥ 50 µg/mL | ≥ 50 µg/mL | ≥ 50 µg/mL | – | – | – | – | – | – | – | – | – |
| CCNC(=O)C(C)(C)n1c(=O)c2c(C)c(C(=O)OCC)sc2n(C[C@H](OC(C)C)c2ccccc2OC)c1=O [Compound I-4, (R)-ethyl 3-(1-(ethylamino)-2-methyl-1-oxopropan-2-yl)-1-(2-isopropoxy-2-(2-methoxyphenyl)ethyl)-5-methyl-2,4-dioxo-1,2,3,4-tetrahydrothieno[2,3-d]pyrimidine-6-carboxylate] | 10 to 40 nM | 2 µg/mL (≈ 3.57 µM) | 10 µg/mL (≈ 17.9 µM) | 10 µg/mL (≈ 17.9 µM) | 0.4 µg/mL (≈ 0.715 µM) | 2 µg/mL (≈ 3.57 µM) | ≥ 50 µg/mL | ≥ 50 µg/mL | ≥ 50 µg/mL | 10 to 40 nM | 2 µg/mL (≈ 3.57 µM) | ≥ 50 µg/mL | ≥ 50 µg/mL | 0.4 µg/mL (≈ 0.715 µM) | 2 µg/mL (≈ 3.57 µM) | ≥ 50 µg/mL | ≥ 50 µg/mL | ≥ 50 µg/mL |
| CCOC(=O)c1sc2c(c1C)c(=O)n(C(C)(C)C(=O)NC(C)C)c(=O)n2C[C@H](OCCOC)c1cc(F)ccc1OC [Compound I-11, (R)-ethyl 1-(2-(5-fluoro-2-methoxyphenyl)-2-(2-methoxy-ethoxy)ethyl)-3-(1-(isopropylamino)-2-methyl-1-oxopropan-2-yl)-5-methyl-2,4-dioxo-1,2,3,4-tetrahydrothieno[2,3-d]pyrimidine-6-carboxylate] | 10 to 40 nM | 2 µg/mL (≈ 3.29 µM) | 2 µg/mL (≈ 3.29 µM) | 2 µg/mL (≈ 3.29 µM) | 0.08 µg/mL (≈ 0.132 µM) | 0.4 µg/mL (≈ 0.658 µM) | ≥ 50 µg/mL | 10 µg/mL (≈ 16.5 µM) | ≥ 50 µg/mL | 10 to 40 nM | 2 µg/mL (≈ 3.29 µM) | 2 µg/mL (≈ 3.29 µM) | 2 µg/mL (≈ 3.29 µM) | 0.08 µg/mL (≈ 0.132 µM) | 0.4 µg/mL (≈ 0.658 µM) | ≥ 50 µg/mL | ≥ 50 µg/mL | ≥ 50 µg/mL |
| CCOC(=O)c1sc2c(c1C)c(=O)n([C@H](C)C(=O)NC(C)C)c(=O)n2C[C@H](OCCC#N)c1cc(F)ccc1OC [Compound I-21, ethyl 1-((R)-2-(2-cyanoethoxy)-2-(5-fluoro-2-methoxyphenyl)ethyl)-3-((R)-1-(isopropylamino)-1-oxopropan-2-yl)-5-methyl-2,4-dioxo-1,2,3,4-tetrahydrothieno[2,3-d]pyrimidine-6-carboxylate] | 0.3 to 3 nM | 0.4 µg/mL (≈ 0.68 µM) | 0.4 µg/mL (≈ 0.68 µM) | 0.4 µg/mL (≈ 0.68 µM) | 0.08 µg/mL (≈ 0.136 µM) | 0.4 µg/mL (≈ 0.68 µM) | 10 µg/mL (≈ 17 µM) | 0.08 µg/mL (≈ 0.136 µM) | ≥ 50 µg/mL | – | – | – | – | – | – | – | – | – |
